Article PMC7861629 (Bosnian Journal of Basic Medical Sciences, 2021)

Tests used:
[1] = rat
Protocol: The weight of the pieces applied was 25.2 ± 1.6 mg (mean ± standard deviation [SD]) and the amount of vancomycin in the collagen sponge pieces was 11.2 ± 0.7 mg (mean ± SD). For placebo group (n = 6), a 10 mm × 10 mm piece of placebo-containing collagen sponge was applied. The pocket on the sham surgery side was sutured with no sponge so as to provide for a control.
We administered 7.5 mg of vancomycin intraperitoneally to rats accompanied by a similar induction of s.c. infection; we measured the plasma levels in the same way as we did for the active arm.
Blood samples (volume, 0.5 mL) for determination of vancomycin and haptoglobin levels were drawn from the jugular vein into a 0.5 mL heparinized syringe under isoflurane anesthesia. Samples were drawn from three animals in vancomycin group 0.5, 1, 2, and 4 h following inoculation on the 1st day to determine vancomycin and haptoglobin levels. Samples were also taken from all animals in placebo group on the 1st day 2 h following inoculation to determine haptoglobin level only. Samples from four animals in vancomycin group and two animals in placebo group were drawn on the 1st, 2nd, and 3rd day following inoculation. The final sample was drawn intracardially upon termination on day 4 following inoculation. The samples were centrifuged (12,000 rpm, 2 min) and the samples from days 1, 2, and 3 following inoculation were frozen at -20°C until analyzed. Vancomycin concentration in the blood as well as haptoglobin level (rat acute phase marker) were determined using a nephelometric method (Beckman Coulter, Indianapolis, IN, USA).

[2] = children, 1000 mg vancomycin powder during spinal deformity surgery; cited from earlier work
Protocol: Following the application of 1000 mg of vancomycin powder during sur ...

CN[C@H](CC(C)C)C(=O)N[C@H]1C(=O)N[C@@H](CC(N)=O)C(=O)N[C@H]2C(=O)N[C@H]3C(=O)N[C@H](C(=O)N[C@H](C(=O)O)c4cc(O)cc(O)c4-c4cc3ccc4O)[C@H](O)c3ccc(c(Cl)c3)Oc3cc2cc(c3O[C@@H]2O[C@H](CO)[C@@H](O)[C@H](O)[C@H]2O[C@H]2C[C@](C)(N)[C@H](O)[C@H](C)O2)Oc2ccc(cc2Cl)[C@H]1O [vancomycin]
AUC ([1]; 7.5 mg vancomycin i.p., calculated from obtained levels): 87.71 µg·h/mL
vancomycin level after 24 h ([1]; 7.5 mg vancomycin i.p., detected in one animal only, nephelometric method): 0.2 mg/L
expected AUC after 11.2 mg ([1]; i.p., extrapolated from 7.5 mg dose to the sponge dose): 130.9 µg·h/mL
vancomycin level in fluid drained by subfascial drain, day 0 [2]: 403 mg/L
vancomycin level in fluid drained by subfascial drain, day 1 [2]: 251 mg/L
vancomycin level in fluid drained by subfascial drain, day 2 [2]: 115 mg/L
vancomycin level in plasma, day 0 [2]: 2.5 mg/L
vancomycin level in plasma, day 1 [2]: 1.9 mg/L
vancomycin level in plasma, day 2 [2]: 1.1 mg/L
